What is called IC50 is the concentration at which inhibition is half-maximal.

The target in one assay is T1, Menin-MLL (Homo sapiens, UniProt O00255).
T1 construct: His-Menin (M1-L615 end); purchased BIORTUS BP9210
T1 sequence (O00255 1-615 isoform O00255-1): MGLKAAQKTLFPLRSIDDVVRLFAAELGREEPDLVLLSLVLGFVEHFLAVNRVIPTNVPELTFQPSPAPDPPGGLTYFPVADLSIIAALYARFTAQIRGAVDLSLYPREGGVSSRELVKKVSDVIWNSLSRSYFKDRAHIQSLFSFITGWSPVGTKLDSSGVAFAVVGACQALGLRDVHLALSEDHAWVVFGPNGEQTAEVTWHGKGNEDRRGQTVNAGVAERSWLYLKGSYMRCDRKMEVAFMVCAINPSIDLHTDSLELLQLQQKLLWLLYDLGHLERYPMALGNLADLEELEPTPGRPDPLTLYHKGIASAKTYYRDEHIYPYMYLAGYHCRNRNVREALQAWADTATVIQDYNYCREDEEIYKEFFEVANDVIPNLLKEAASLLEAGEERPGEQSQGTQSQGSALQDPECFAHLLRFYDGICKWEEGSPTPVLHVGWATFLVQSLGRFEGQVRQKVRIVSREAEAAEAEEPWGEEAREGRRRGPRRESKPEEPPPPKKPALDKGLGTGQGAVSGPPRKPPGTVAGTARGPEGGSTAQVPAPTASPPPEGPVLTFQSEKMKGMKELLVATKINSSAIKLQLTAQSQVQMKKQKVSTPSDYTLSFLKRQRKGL
Put plainly: Inhibitory activity against Menin-MLL binding (fluorescence polarization). Particulars: Menin-MLL IC50, fluorescence polarization; 150 nM His-Menin, 15 nM FITC-MLL; 25°C for 60 min. The method, then: • His-Menin (M1-L615 end), purchased from BIORTUS, Catalog Number: BP9210; and • FITC-MLL4-43, purchased from GenScript, Catalog Number: C491HFF190-3/PE1324.
In a 10 µL reaction solution (20 mM HEPES, pH 7.5, 50 mM NaCl, 1 mM DTT, 0.01% BSA) containing any compound from the examples, 150 nM His-Menin was added to a 384-well plate (Corning, Model: 4514). Each concentration was set up in duplicate wells. After centrifugation at 1000 RPM for 1 min, the plate was incubated at 25°C for 15 min. Then, 15 nM […] (20 mM HEPES, pH 7.5, 50 mM NaCl, 1 mM DTT, 0.01% BSA) was added to a 384-well plate. After centrifugation at 1000 RPM for 1 min, the reaction proceeded at 25°C for 60 min. Changes in fluorescence polarization were measured using a plate reader (PerkinElmer, Envision 2104). Based on the measured signals, the binding inhibition rate of the compound at each concentration was calculated, and the IC50 (half-maximal inhibitory concentration) of the compound was determined using statistical analysis software GraphPad Prism (GraphPad Software, Inc.) by means of a nonlinear fitting formula: 4-Parameter Logistic Model or Sigmoidal Dose-Response Model: Y = Bottom + (Top−Bottom)/(1 + 10^((LogIC50−X) × Hill Slope)), [formula] in which X indicates the logarithm of compound concentration, Y indicates a fluorescence polarization mP value, and Top and Bottom indicate the maximum and minimum readouts of fluorescence polarization mP values. Table 1: Inhibitory Activity of Compounds Against Menin-MLL Binding
As for `CCN(C(=O)c1cc(F)ccc1-c1cc(C2CCN(C[C@H]3CC[C@@H](NS(=O)(=O)CC)CC3)C2)cc2cncn12)C(C)C` (mixture of isomers) [Example 26, N-ethyl-5-fluoro-N-isopropyl-2-[7-(1-{[(1s,4s)-4-ethanesulfonamidocyclohexyl]methyl}pyrrolidin-3-yl)imidazo[1,5-a]pyridin-5-yl]benzamide], the half-maximal inhibitory concentration (IC50) was 44.5 nM. Same read-out and setting: in the case of `CCN(C(=O)c1cc(F)ccc1-c1cc(C2CN(C(=O)[C@@H](NC)C(C)C)C2)cn2c(C)nc(F)c12)C(C)C` [Example 315] it was 39 nM.

The assay is the same for the next values; noted with them: fluorescence polarization; 150 nM His-Menin, 15 nM FITC-MLL; 25°C for 60 min; read-out: Menin-MLL IC50.
Consider `CCN(C(=O)c1cc(F)ccc1-c1cc(C2CN([C@H](CCCN3CCN(CCO)C(=O)C3)C(C)C)C2)cn2c(C)ncc12)C(C)C` [Example 486, N-ethyl-5-fluoro-2-(6-{1-[(3R)-6-[4-(2-hydroxyethyl)-3-oxopiperazin-1-yl]-2-methylhexan-3-yl]azacyclobutan-3-yl}-3-methylimidazo[1,5-a]pyridin-8-yl)-N-(isopropyl)benzamide], for which the IC50 was found to be 4.2 nM.

Regarding `CCN(C(=O)c1cc(F)ccc1-c1cc(C2CCN(C[C@H]3CC[C@H](N4CCOC4=O)CC3)C2)nc2c1cnn2C)C(C)C` (stereo partly drawn) [Example 28], the IC50 is 118 nM. Regarding `COc1cc(-c2ccc(CCN3CCN(c4cc(-c5ccc(F)cc5C(=O)N5CCOC[C@H]5C)c5cnc(C)n5c4)CC3)cc2)nnc1OC` [Example 86], the concentration for half-maximal inhibition (IC50) worked out at 152 nM. As to `CCS(=O)(=O)N1CCC(CN2CC(c3cc(-c4ccc(F)cc4C(=O)N4CCOC[C@H]4C)c4c(F)nc(C)n4c3)C2)CC1` [Example 251], the IC50 is 106 nM. With `Cc1nc(F)c2c(-c3ccc(F)cc3C(=O)N3[C@H](C)COC[C@H]3C)cc(CC3CN(CC4CCOCC4)C3)cn12` [Example 229], the IC50 turned out to be 57 nM. Take `CCN(C(=O)c1cc(F)ccc1-c1cc(C2CN([C@H](CCCN3CCN[C@H](CF)C3)C(C)C)C2)cn2c(C)ncc12)C(C)C` [Example 501]: the IC50 came to 1.6 nM.

As for `CCN(C(=O)c1cc(F)ccc1-c1cc(N2CCN(CC3CCCCC3)CC2)cn2c(C)ncc12)C(C)C` [Compound 58, 2-{6-[4-(cyclohexylmethyl)piperazin-1-yl]-3-methylimidazo[1,5-a]pyridin-8-yl}-N-ethyl-5-fluoro-N-(isopropyl)benzamide], the concentration for half-maximal inhibition (IC50) came out at 124 nM. Take `Cc1nc(F)c2c(-c3ccc(F)cc3C(=O)N3CCOC[C@H]3C)cc(C3CN([C@@H](CC[C@@H]4CNCCO4)C(C)C)C3)cn12` [Example 245-2, (3R)-4-[5-fluoro-2-(1-fluoro-3-methyl-6-{1-[(3S)-4-methyl-1-[(2R)-morpholin-2-yl]pentan-3-yl]azacyclobutan-3-yl}imidazo[1,5-a]pyridin-8yl)benzoyl]-3-methylmorpholine]: the IC50 stood at 58 nM. Regarding `CCN(C(=O)c1cc(F)ccc1-c1cc(C2CN([C@H](CCCN3CCN(C(C)=O)CC3)C(C)C)C2)cc2c1cnn2C)C(C)C` [Example 407], the IC50 turned out to be 33 nM. Consider `CCN(C(=O)c1cc(F)ccc1-c1cc(C2CN([C@H](CCCN3CCN[C@@H](CF)C3)C(C)C)C2)cn2c(C)ncc12)C(C)C` [Example 500], for which the IC50 turned out to be 2.2 nM. With `C=C1C[C@@H]2CC[C@H]1[C@@H](C(=O)N1CCC(c3cc(-c4ccc(F)cc4C(=O)N(CC)C(C)C)c4cncn4c3)C1)N2` (stereo partly drawn) [Example 23, N-ethyl-5-fluoro-2-(6-{1-[(1S,3S,4R)-5-methylene-2-azabicyclo[2.2.2]octan-3-carbonyl]pyrrolidin-3-yl}imidazo[1,5-a]pyridin-8-yl)-N-(isopropyl)benzamide], the IC50 is 102 nM.

In the case of `Cc1nc(F)c2c(-c3ccc(F)cc3C(=O)N(CC(F)F)C(C)C)cc(C3CN(C(=O)[C@@H]4C[C@@H](C)CCN4)C3)cn12` [Example 155], the IC50 amounted to 23 nM.

Take `CCS(=O)(=O)N[C@@H]1CC[C@@H](CN2CCC(c3cc(-c4ccc(F)cc4C(=O)N(CC(F)F)C(C)C)c4cnc(C)n4c3)C2)OC1` (stereo partly drawn) [Example 163, N-(2,2-difluoroethyl)-2-[6-(1-{[(2S,5R)-5-ethanesulfonamidooxacyclohexan-2-yl]methyl}pyrrolidin-3-yl)-3-methylimidazo[1,5-a]pyridin-8-yl]-5-fluoro-N-(isopropyl)benzamide]: the half-maximal inhibitory concentration (IC50) worked out at 38 nM.

Values taken from patent publication EP4782453A1 (Beyang Therapeutics Co., Ltd., priority 2023, dated 2025).
